How the values were obtained:
K. pneumoniae = assay: ESBL NDP test using cultured strains; format: biochemical, Klebsiella pneumoniae; set-up: key: (+) and (−) referred to color change being, red to yellow or unchanged, respectively; (+) and (−) referred to color change being, red to yellow or unchanged, respectively
Procedure: (§1) Strains were isolated on Mueller-Hinton agar (Biorad, Marnes-la-Coquette, France) and incubated at 37° C. for 16 h to 24 h before performing the NDP rapid ESBL test as follows. One calibrated inoculated loop (10 μl) of the tested strain was resuspended in 150 μl of 20 mM Tris-HCl lysis buffer previously distributed in Microbead tubes (Ultraclean Microbial DNA isolation kit Bead Tubes, MO BIO Laboratories, Carlsbad, USA). Mechanical lysis of bacteria was performed by strong agitation of Microbead tubes using a vortex adapter (MO BIO Laboratories) for 30 min at room temperature. This bacterial suspension was centrifuged at 10,000×g at room temperature for 5 min. Thirty μl of the supernatant was mixed in a well of a 96-well tray with 100 μl of a 1 ml solution made of 3 mg of purified cefotaxime sodium salt (Sigma-Aldrich, Saint-Quentin-Fallavier, France) in a pH 7.8 phenol red solution. […]. The phenol red solution was made by taking 2 ml of a concentrated pH 8 phenol solution (made from a mixture of phenol red 0.5% in distilled water) to which 16.6 ml of distilled water was added. The pH value was then adjusted to a 7.8 value by adding drops of a 1 N NaOH solution. Mixture of the phenol red solution and the enzymatic suspension being tested was incubated at 37° C. for 30 min. Similarly, culture extracts were analyzed in wells containing cefotaxime and tazobactam (4 mg/ml). Other concentrations of tazobactam and other ß-lactamase inhibitors were tested giving less clear results (data not shown). […] This definition of test positivity will be applied throughout the study.

S. marcescens = assay: ESBL NDP test using cultured strains; format: biochemical, Serratia marcescens; set-up: key: (+) and (−) referred to color change being, red to yellow or unchanged, respectively; (+) and (−) referred to color change being, red to yellow or unchanged, respectively
Procedure: as §1

E. sakazakii = assay: ESBL NDP test using cultured strains; format: biochemical; set-up: key: (+) and (−) referred to color change being, red to yellow or unchanged, respectively; (+) and (−) referred to color change being, red to yellow or unchanged, respectively; conditions: overexpressed chromosome-encoded cephalosporinase, n=1
Procedure: as §1

C. brakii = assay: ESBL NDP test using cultured strains; format: biochemical; set-up: key: (+) and (−) referred to color change being, red to yellow or unchanged, respectively; (+) and (−) referred to color change being, red to yellow or unchanged, respectively; conditions: C. brakii Wild-type, chromosome-encoded cephalosporinase, n=1
Procedure: as §1

S. ficaria = assay: ESBL NDP test using cultured strains; format: biochemical; set-up: key: (+) and (−) referred to color change being, red to yellow or unchanged, respectively; (+) and (−) referred to color change being, red to yellow or unchanged, respectively
Procedure: as §1

S. thyphimurium = assay: ESBL NDP test using cultured strains; format: biochemical; set-up: key: (+) and (−) referred to color change being, red to yellow or unchanged, respectively; (+) and (−) referred to color change being, red to yellow or unchanged, respectively; conditions: S. thyphimurium 10.81, CTX-M-1
Procedure: as §1

P. mirabilis = assay: Susceptibility testing, MIC by Etest; format: cell-based, Proteus mirabilis
Procedure: Susceptibility testing was performed by determining MIC values using the Etest® (AB bioMérieux; Solna, Sweden) on Mueller-Hinton agar plates at 37° C. and results were recorded according to US guidelines (CLSI), as updated in 2012 (2). The breakpoints for cefotaxime are susceptible (S)≤1 and resistant (R)≥4 μg/ml, and for ceftazidime S≤4 and R≥16 μg/ml.

Question: How did the “ESBL NDP Test from: Colonies” value (K. pneumoniae; K. pneumoniae 09.127, SHV-2a) turn out when CO/N=C(\C(=O)N[C@@H]1C(=O)N2C(C(=O)O)=C(COC(C)=O)CS[C@H]12)c1csc(N)n1 [CTX, cefotaxime] was run?
Answer: +

Question: And the “ESBL NDP Test from: Colonies” value (K. pneumoniae; K. pneumoniae 09.138, TEM-3)?
Answer: +

Question: What about the “ESBL NDP Test from: Colonies” value (K. pneumoniae; K. pneumoniae 09.158, SHV-12) of the same molecule?
Answer: +

Question: What about the “ESBL NDP Test from: Colonies” value (K. pneumoniae; K. pneumoniae 09.162, TEM-52) of the same molecule?
Answer: +

Question: And the “ESBL NDP Test from: Colonies” value (K. pneumoniae; K. pneumoniae 09.169, TEM-52)?
Answer: +

Question: What about the “ESBL NDP Test from: Colonies” value (K. pneumoniae; K. pneumoniae 09.181, SHV-2a) of the same molecule?
Answer: +

Question: And the “ESBL NDP Test from: Colonies” value (K. pneumoniae; K. pneumoniae 09.190, SHV-2a)?
Answer: −

Question: And the “ESBL NDP Test from: Colonies” value (K. pneumoniae; K. pneumoniae 09.200, TEM-3)?
Answer: +

Question: And the “ESBL NDP Test from: Colonies” value (K. pneumoniae; K. pneumoniae 09.217, SHV-5)?
Answer: +

Question: What about the “ESBL NDP Test from: Colonies” value (K. pneumoniae; K. pneumoniae 09.45, SHV-12) of the same molecule?
Answer: +

Question: And the “ESBL NDP Test from: Colonies” value (K. pneumoniae; K. pneumoniae 09.60, SHV-5)?
Answer: +

Question: What about the “ESBL NDP Test from: Colonies” value (K. pneumoniae; K. pneumoniae 09.99, SHV-2a) of the same molecule?
Answer: +

Question: What about the “ESBL NDP Test from: Colonies” value (K. pneumoniae; K. pneumoniae 10.159, CTX-M-3) of the same molecule?
Answer: +

Question: And the “ESBL NDP Test from: Colonies” value (K. pneumoniae; K. pneumoniae ANG, DHA-1)?
Answer: −

Question: What about the “ESBL NDP Test from: Colonies” value (K. pneumoniae; K. pneumoniae BG 1202 5484, Penicillinase) of the same molecule?
Answer: −

Question: And the “Test (color change)” value (K. pneumoniae; K. pneumoniae CTX-M-3, n=1)?
Answer: +

Question: What about the “Test (color change)” value (K. pneumoniae; K. pneumoniae CTX-M-14, n=3) of the same molecule?
Answer: +

Question: And the “Test (color change)” value (K. pneumoniae; K. pneumoniae CTX-M-15, n=28)?
Answer: +

Question: What about the “Test (color change)” value (K. pneumoniae; K. pneumoniae DHA-1, n=1) of the same molecule?
Answer: −

Question: What about the “Test (color change)” value (K. pneumoniae; K. pneumoniae DHA-2, n=1) of the same molecule?
Answer: +

Question: What about the “ESBL NDP Test from: Colonies” value (K. pneumoniae; K. pneumoniae FOR, DHA-2) of the same molecule?
Answer: +

Question: And the “Test (color change)” value (K. pneumoniae; K. pneumoniae GES-1, n=1)?
Answer: +

Question: What about the “ESBL NDP Test from: Colonies” value (K. pneumoniae; K. pneumoniae MEK, CTX-M-15) of the same molecule?
Answer: +

Question: And the “ESBL NDP Test from: Colonies” value (K. pneumoniae; K. pneumoniae SHI, CTX-M-15)?
Answer: +

Question: And the “Test (color change)” value (K. pneumoniae; K. pneumoniae SHV-2a, n=2)?
Answer: −

Question: What about the “Test (color change)” value (K. pneumoniae; K. pneumoniae SHV-2a, n=4) of the same molecule?
Answer: +

Question: And the “Test (color change)” value (K. pneumoniae; K. pneumoniae SHV-5, n=2)?
Answer: +

Question: What about the “Test (color change)” value (K. pneumoniae; K. pneumoniae SHV-12, n=1) of the same molecule?
Answer: −

Question: What about the “Test (color change)” value (K. pneumoniae; K. pneumoniae SHV-12, n=2) of the same molecule?
Answer: +

Question: What about the “Test (color change)” value (K. pneumoniae; K. pneumoniae SHV-28, n=3) of the same molecule?
Answer: +

Question: What about the “Test (color change)” value (K. pneumoniae; K. pneumoniae TEM-3, n=3) of the same molecule?
Answer: +

Question: And the “Test (color change)” value (K. pneumoniae; K. pneumoniae TEM-52, n=2)?
Answer: +

Question: And the “Test (color change)” value (K. pneumoniae; K. pneumoniae Wild-type penicillinase, n=2)?
Answer: −

Question: And the “ESBL NDP Test from: Colonies” value (S. marcescens; S. marcescens BG 1107 4243, Wild-type)?
Answer: −

Question: And the “ESBL NDP Test from: Colonies” value (S. marcescens; S. marcescens BN 1201 0816, Wild-type)?
Answer: −

Question: What about the “Test (color change)” value (S. marcescens; S. marcescens Wild-type, chromosome-encoded cephalosporinase, n=2) of the same molecule?
Answer: −

Question: And the “Test (color change)” value (E. sakazakii)?
Answer: −

Question: What about the “Test (color change)” value (C. brakii) of the same molecule?
Answer: −

Question: And the “ESBL NDP Test from: Colonies” value (S. ficaria; S. ficaria CIP 104255, Wild-type)?
Answer: −

Question: And the “Test (color change)” value (S. ficaria; S. ficaria Wild-type, chromosome-encoded cephalosporinase, n=1)?
Answer: −

Question: And the “ESBL NDP Test from: Colonies” value (S. thyphimurium)?
Answer: +

Question: And the MICs range (P. mirabilis; P. mirabilis ACC-1, n=1)?
Answer: >16 µg/mL

Question: And the MICs range (P. mirabilis; P. mirabilis CTX-M-14, n=1)?
Answer: >16 µg/mL

Question: What about the MICs range (P. mirabilis; P. mirabilis CTX-M-15, n=1) of the same molecule?
Answer: >16 µg/mL

Question: And the MICs range (P. mirabilis; P. mirabilis PER-1, n=1)?
Answer: >16 µg/mL

Question: What about the MICs range (P. mirabilis; P. mirabilis TEM-21, n=1) of the same molecule?
Answer: 0.25 µg/mL

Question: And the MICs range (P. mirabilis; P. mirabilis TEM-52, n=1)?
Answer: >16 µg/mL

From patent US10793892B2, “Method for detecting the presence of expanded spectrum β-lactamase-producing bacteria in a sample” (INSERM (INSTITUT NATIONAL DE LA SANTE ET DE LA RECHERCHE …, priority 2011, dated 2020)
